These results are taken from patent publication US10913771B2, “Peptide for preventing or treating inflammatory diseases and use thereof” (KINE SCIENCES Co., Ltd., priority 2016, dated 2021).

A short description of data set [1]: Evaluation of toxicity: mortality and change in body weight after intraperitoneal administration. The note with it: individual mouse. Type of data set: in vivo. The procedure: In Example 3, in order to confirm the toxicity of the peptide of the present invention, the PSP dimer or the PSP trimer was intraperitoneally administered to mouse at various concentrations (0.1 μmole, 1 μmole, and 10 μmole), and then the mortality and a change in body weight of each mouse were measured. On the other hand, as a control, a non-administration group (Normal) and a PBS-treated group (PBS) were used.

For data set [2], the system named is collagen-induced arthritis (CIA) mouse model. Kind of data set: Arthritis progression index in collagen-induced arthritis mouse model. Type of data set: in vivo, DBA/1J mouse. As to the method: In Example 2, using a collagen-induced arthritis mouse model in the following document, a therapeutic effect of a PSP dimer or trimer for a representative inflammatory disease, rheumatoid arthritis was confirmed (Nat Protoc. 2007; 2(5):1269-75.).
A collagen-induced arthritis (CIA) mouse model was prepared as follows, as an autoimmune disease-based arthritis model with characteristics similar to human rheumatoid arthritis.
First, a bovine type II collagen (Chondrex Corporation, USA) and a Freund's complete adjuvant (Chondrex Corporation, USA) were mixed at a ratio of 1:1 and emulsified, and then 50 μl of the emulsified collagen solution was injected intradermally into the tail of a 6-week-old DBA/1J mouse to induce primary immunization. At two weeks after the primary immunization, the bovine type II collagen and the Freund's complete adjuvant were mixed at a ratio of 1:1 and emulsified, and then 50 μl of the emulsified collagen solution was injected intradermally into the tail of the mouse again to induce secondary immunization (boosting). After the secondary immunization, the peptide of the present invention (the PSP dimer (1 μmole) or the PSP trimer (1 μmole)) was administered intraperitoneally three times a week from the next day, and as a comparative experimental group, a PSP monomer-treated group and as a control (Vehicle control), a PBS-treated group were used, respectively. The preparation process of the collagen-induced arthritis mouse model and the administration time of the peptide were schematically illustrated in FIG. 1.
In order to investigate the development of arthritis progression according to the peptide treatment of the present invention, the deepening degree of arthritis with time was measured by evaluating an arthritis progression index. Two observers who were unaware of the specific experimental conditions evaluated progression of arthritis three times a week. In this case, the arthritis progression index was evaluated by 0 to 4 scores per leg according to an arthritis progression evaluation standard by Rossoliniec and the like in Table 2 below to be represented by a total of 0 to 16 scores (a sum of four legs), and thereafter, two observers calculated an average value of the evaluated results to digitize the severity of arthritis.
Methotrexate (MTX), one of drugs which are used as arthritis therapeutic agents in a current clinical practice, had excellent anti-inflammatory and arthritis therapeutic effects as an immunodepressant, but may have side effects such as toxicity to normal cells, oral ulcer, alopecia, interstitial pneumonia, bone marrow suppression, and the like. As a result, the methotrexate is known as a drug that needs to pay close attention after medication with sufficient medication counseling. In Example 2, the arthritis therapeutic effect with the peptide of the present invention and methotrexate (1 mg/kg) was evaluated and compared with the arthritic progression index by using the same method as Example 2-2.

Several values for one entry are separate records, joined by “and”; a condition that tells them apart may be missing. Equal entries are not always repeated. Ends that are not written are not given here.

Regarding PSPPSP [PSP dimer, PSPPSP], the Body weight is 20.7 g and 20.2 g and 21.6 g and 21 g and 20.1 g and 20.9 g and 19.9 g in data set [1] (PSP dimer 0.1 μmol intraperitoneal, day 15); 20.7 g and 21.1 g (2×) and 22.7 g and 22.4 g and 21.2 g and 21.8 g in data set [1] (PSP dimer 0.1 μmol intraperitoneal, day 18); 23.3 g and 21.9 g and 23.5 g and 22.9 g and 21.4 g and 23.1 g and 22.3 g in data set [1] (PSP dimer 0.1 μmol intraperitoneal, day 22); 22.7 g and 21.4 g and 22.1 g and 23 g and 21.1 g and 22.5 g and 21.7 g in data set [1] (PSP dimer 0.1 μmol intraperitoneal, day 25); 23.2 g (2×) and 21.7 g (2×) and 22.7 g and 23.3 g and 19.5 g in data set [1] (PSP dimer 0.1 μmol intraperitoneal, day 29); 23.5 g and 22.1 g and 23.3 g and 22.7 g and 19.3 g and 23.9 g and 21 g in data set [1] (PSP dimer 0.1 μmol intraperitoneal, day 32). Also, the Body weight is 23.7 g and 18.6 g (2×) and 22.4 g and 22.3 g and 24.2 g and 20.2 g in data set [1] (PSP dimer 0.1 μmol intraperitoneal, day 36); 23.3 g and 20 g and 22.5 g and 22.1 g and 20.8 g and 21.8 g and 21.1 g in data set [1] (PSP dimer 1 μmol intraperitoneal, day 18); 24.4 g and 20.7 g and 22.5 g (3×) and 23.2 g and 21.5 g in data set [1] (PSP dimer 1 μmol intraperitoneal, day 22); 23.9 g and 19.6 g and 21.8 g and 22.9 g and 21.6 g and 22.3 g and 22.4 g in data set [1] (PSP dimer 1 μmol intraperitoneal, day 25); 23.9 g and 20.1 g and 21.8 g and 23.4 g and 21.3 g and 22.7 g and 23.1 g in data set [1] (PSP dimer 1 μmol intraperitoneal, day 29); 23 g (2×) and 20.7 g and 23.4 g and 21.4 g and 19.4 g and 24.5 g in data set [1] (PSP dimer 1 μmol intraperitoneal, day 36). Besides, the Body weight in data set [1] (PSP dimer 10 μmol intraperitoneal, day 15) came out at 19.5 g; in data set [1] (PSP dimer 10 μmol intraperitoneal, day 18) it was 20.8 g.
As for `CN(Cc1cnc2nc(N)nc(N)c2n1)c1ccc(C(=O)N[C@@H](CCC(=O)O)C(=O)O)cc1` [MTX, methotrexate], the arthritis progression index in data set [2] (Table 6, day 14, comparison of PSP dimer with methotrexate (1 mg/kg), 0 to 16 scores) was determined as 0.0; in data set [2] (Table 6, day 17, comparison with methotrexate (1 mg/kg)), 0.0; in data set [2] (Table 6, day 20, comparison with methotrexate (1 mg/kg)), 0.0; in data set [2] (Table 6, day 22, comparison with methotrexate (1 mg/kg)), 0.0; in data set [2] (Table 6, day 25, comparison with methotrexate (1 mg/kg)) it was 0.0; in data set [2] (Table 6, day 27, comparison with methotrexate (1 mg/kg)) it was 1.0. Moreover, the arthritis progression index in data set [2] (Table 6, day 29, comparison with methotrexate (1 mg/kg)) came out at 0.8; in data set [2] (Table 6, day 31, comparison with methotrexate (1 mg/kg)) it was 2.8; in data set [2] (Table 6, day 35, comparison with methotrexate (1 mg/kg)) it was 3.2; in data set [2] (Table 7, day 14, comparison of PSP trimer with methotrexate (1 mg/kg), 0 to 16 scores) it was 0.0; in data set [2] (Table 7, day 17, comparison with methotrexate (1 mg/kg)), 0.0; in data set [2] (Table 7, day 20, comparison with methotrexate (1 mg/kg)), 0.0. Further, the arthritis progression index in data set [2] (Table 7, day 22, comparison with methotrexate (1 mg/kg)) amounted to 0.0; in data set [2] (Table 7, day 25, comparison with methotrexate (1 mg/kg)), 0.0; in data set [2] (Table 7, day 27, comparison with methotrexate (1 mg/kg)), 1.0; in data set [2] (Table 7, day 29, comparison with methotrexate (1 mg/kg)), 0.8; in data set [2] (Table 7, day 31, comparison with methotrexate (1 mg/kg)), 2.8; in data set [2] (Table 7, day 35, comparison with methotrexate (1 mg/kg)), 3.2.
Take PSPPSPPSP [PSP trimer, PSPPSPPSP]: the Body weight in data set [1] (PSP trimer 0.1 μmol intraperitoneal, day 15) is 20.75 g (2×) and 20.64 g and 21.54 g and 19.43 g and 22.27 g and 21.68 g; in data set [1] (PSP trimer 0.1 μmol intraperitoneal, day 17) it was 21 g and 20.6 g and 21.5 g and 19.1 g and 22.3 g and 21.3 g and 21.7 g; in data set [1] (PSP trimer 0.1 μmol intraperitoneal, day 20), 21.2 g and 21.3 g and 20.8 g and 19.6 g and 22.9 g and 21.9 g and 21.7 g; in data set [1] (PSP trimer 0.1 μmol intraperitoneal, day 24), 22.2 g and 21.7 g and 22.6 g and 19.9 g and 23.8 g and 22.8 g and 21.9 g; in data set [1] (PSP trimer 0.1 μmol intraperitoneal, day 27), 21.3 g and 21.4 g and 22.7 g and 19.5 g and 23.6 g and 22.2 g and 21.8 g; in data set [1] (PSP trimer 0.1 μmol intraperitoneal, day 31), 20.3 g and 21.3 g and 21 g (2×) and 18.6 g and 24.3 g and 23.3 g. For the same compound, the Body weight is 19.7 g and 20.5 g and 19.8 g and 18.1 g and 24.1 g and 23 g and 21.3 g in data set [1] (PSP trimer 0.1 μmol intraperitoneal, day 34); 20.76 g and 21.15 g (2×) and 21.62 g and 21.02 g and 20.4 g and 19.02 g in data set [1] (PSP trimer 1 μmol intraperitoneal, day 15); 21.5 g (2×) and 21.1 g and 22.2 g and 21.7 g and 21.3 g and 19.1 g in data set [1] (PSP trimer 1 μmol intraperitoneal, day 17); 22.3 g and 21.6 g and 22.9 g and 22.1 g and 21.8 g and 20.8 g and 19.2 g in data set [1] (PSP trimer 1 μmol intraperitoneal, day 20); 23.2 g and 22.6 g and 23.8 g and 22.7 g (2×) and 21.3 g and 20.2 g in data set [1] (PSP trimer 1 μmol intraperitoneal, day 24); 22.3 g and 22.4 g and 23.8 g and 22.8 g and 22.6 g and 21.5 g and 19.8 g in data set [1] (PSP trimer 1 μmol intraperitoneal, day 27). For the same compound, the Body weight is 21.4 g (2×) and 22.7 g and 22.8 g and 22.5 g and 21.7 g and 19.9 g in data set [1] (PSP trimer 1 μmol intraperitoneal, day 31); 20.1 g and 22.6 g and 21.1 g and 19.9 g and 20.7 g and 22 g and 19.3 g in data set [1] (PSP trimer 1 μmol intraperitoneal, day 34); 21.9 g in data set [1] (PSP trimer 10 μmol intraperitoneal, day 15); 21.2 g in data set [1] (PSP trimer 10 μmol intraperitoneal, day 17).
